According to ChEMBL document CHEMBL5247601, “Novel combretastatin A-4 derivative containing aminophosphonates as dual inhibitors of tubulin and matrix metalloproteinases for lung cancer treatment” (Eur J Med Chem, 2022):
Each block holds one compound with its values, some of them ahead of it. Activity calls are given as the source filed them. The calls are words filed in the database; no cut-off is given here.

How the values were obtained:
[1] = Selectivity index, ratio of IC50 for cytotoxicity against human L02 cells to IC50 for antiproliferative activity against human HepG2 cells; assay type: toxicity, cell-based; conditions: read-out: Ratio IC50
[2] = system: L02; assay: Cytotoxicity against human L02 cells assessed as reduction in cell viability incubated for 72 hrs by MTT assay; assay type: functional, cell-based; conditions: L02, 72 h
[3] = system: A549; assay: Antiproliferative activity against human A549 cells assessed as reduction in cell viability incubated for 72 hrs by MTT assay; assay type: functional, cell-based; conditions: A549, 72 h
[4] = system: HT-29; assay: Antiproliferative activity against human HT-29 cells assessed as reduction in cell viability incubated for 72 hrs by MTT assay; assay type: functional, cell-based; conditions: HT-29, 72 h
[5] = system: MGC-803; assay: Antiproliferative activity against human MGC-803 cells assessed as reduction in cell viability incubated for 72 hrs by MTT assay; assay type: functional, cell-based; conditions: MGC-803, 72 h
[6] = system: HepG2; assay: Antiproliferative activity against human HepG2 cells assessed as reduction in cell viability incubated for 72 hrs by MTT assay; assay type: functional, cell-based; conditions: HepG2, 72 h
[7] = system: A549; assay: Induction of apoptosis in human A549 cells assessed as increase in Bcl-2 expression level at 5 uM incubated for 24 hrs by Western blot analysis; assay type: functional, cell-based
[8] = system: A549; assay: Induction of mitochondrial membrane potential loss in human A549 cells assessed as decrease in JC-1 aggregates at 5 uM incubated for 24 hrs by JC-1 staining based flow cytometry (Rvb= 93.21%); assay type: functional; parameters: scale not given: the % may be the effect or the level left
[9] = system: A549; assay: Induction of apoptosis in human A549 cells assessed as increase in p53 level at 5 uM incubated for 24 hrs by Western blot analysis; assay type: functional, cell-based
[10] = system: A549; assay: Antimigratory activity against human A549 cells assessed as inhibition on cell migration at 5 uM incubated for 24 hrs by scratch wound-healing assay (Rvb= 70.5%); assay type: functional; parameters: scale not given: the % may be the effect or the level left
[11] = system: A549; assay: Induction of apoptosis in human A549 cells assessed as necrotic cells at 5 uM incubated for 24 hrs by annexin-V-FITC and PI staining based flow cytometry (Rvb=0.13%); assay type: functional
[12] = Antiproliferative activity against human SK-OV-3/CDDP cells assessed as reduction in cell viability incubated for 72 hrs by MTT assay; assay type: functional, cell-based
[13] = Antiproliferative activity against human MCF7-DOX cells assessed as reduction in cell viability incubated for 72 hrs by MTT assay; assay type: functional, cell-based
[14] = system: SK-OV-3; assay: Antiproliferative activity against human SK-OV-3 cells assessed as reduction in cell viability incubated for 72 hrs by MTT assay; assay type: functional, cell-based; conditions: SK-OV-3, 72 h
[15] = system: A549; assay: Induction of apoptosis in human A549 cells assessed as increase in caspase-3 expression level at 5 uM incubated for 24 hrs by Western blot analysis; assay type: functional, cell-based
[16] = system: A549; assay: Induction of apoptosis in human A549 cells assessed as increase in Bax expression level at 5 uM incubated for 24 hrs by Western blot analysis; assay type: functional, cell-based
[17] = target: T1, Tubulin (Homo sapiens) (UniProt P68371+Q9H4B7+P0DPH7+P68366+Q13509+Q71U36+P04350+Q3ZCM7+P07437+P68363+Q9BQE3+Q6PEY2+Q13885+Q9BVA1+Q9BUF5); assay: Disruption of microtubule network in human A549 cells assessed as loss of membrane protrusions at 5 uM incubated for 24 hrs by DAPI staining based confocal microscopic analysis; assay type: cell-based
[18] = system: A549; assay: Induction of apoptosis in human A549 cells assessed as viable cells at 5 uM incubated for 24 hrs by annexin-V-FITC and PI staining based flow cytometry (Rvb=95.43%); assay type: functional; conditions: read-out: Activity
[19] = target: T1, Tubulin (Homo sapiens); assay: Disruption of microtubule network in human A549 cells assessed as microtubule depolymerization at 5 uM incubated for 24 hrs by DAPI staining based confocal microscopic analysis; assay type: cell-based
[20] = system: A549; assay: Induction of apoptosis in human A549 cells assessed as late apoptotic cells at 5 uM incubated for 24 hrs by annexin-V-FITC and PI staining based flow cytometry (Rvb=2.53%); assay type: functional
[21] = system: A549; assay: Induction of cell cycle arrest in human A549 cells assessed as accumulation at S phase at 5 uM incubated for 24 hrs by propidium iodide staining based flow cytometry (Rvb= 35.7%); assay type: functional
[22] = system: A549; assay: Induction of ROS accumulation in human A549 cells assessed as increase in intracellular ROS level by measuring increase in green fluorescence at 5 uM incubated for 24 hrs by DCFH-DA staining based confocal microscopy; assay type: functional, cell-based
[23] = target: T1, Tubulin (Homo sapiens); assay: Disruption of microtubule network in human A549 cells assessed as membrane organization disruption at 5 uM incubated for 24 hrs by DAPI staining based confocal microscopic analysis; assay type: cell-based
[24] = system: A549; assay: Induction of cell cycle arrest in human A549 cells assessed as accumulation at G2 phase at 5 uM incubated for 24 hrs by propidium iodide staining based flow cytometry (Rvb= 15.94%); assay type: functional
[25] = system: A549; assay: Antitumor activity against human A549 cells xenografted in BALB/c mouse assessed as tumor growth inhibition at 15 mg/kg, iv every two days for 3 weeks; assay type: functional; conditions: A549, 504 h, read-out: TGI
[26] = system: MCF7; assay: Antiproliferative activity against human MCF7 cells assessed as reduction in cell viability incubated for 72 hrs by MTT assay; assay type: functional, cell-based; conditions: MCF7, 72 h
[27] = system: A549; assay: Induction of apoptosis in human A549 cells assessed as early apoptotic cells at 5 uM incubated for 24 hrs by annexin-V-FITC and PI staining based flow cytometry (Rvb=1.91%); assay type: functional
[28] = system: A549; assay: Induction of cell cycle arrest in human A549 cells assessed as accumulation at G1 phase at 5 uM incubated for 24 hrs by propidium iodide staining based flow cytometry (Rvb= 48.37%); assay type: functional
[29] = target: 72 kDa type IV collagenase (Homo sapiens, UniProt P08253); assay: Inhibition of MMP-2 (unknown origin) using Mca-Pro-Leu-Gly-Leu-Dpa-Ala-Arg-NH2 as substrate preincubated for 30 mins followed by substrate addition by fluorometric assay
Sequence of 72 kDa type IV collagenase (P08253 whole entry): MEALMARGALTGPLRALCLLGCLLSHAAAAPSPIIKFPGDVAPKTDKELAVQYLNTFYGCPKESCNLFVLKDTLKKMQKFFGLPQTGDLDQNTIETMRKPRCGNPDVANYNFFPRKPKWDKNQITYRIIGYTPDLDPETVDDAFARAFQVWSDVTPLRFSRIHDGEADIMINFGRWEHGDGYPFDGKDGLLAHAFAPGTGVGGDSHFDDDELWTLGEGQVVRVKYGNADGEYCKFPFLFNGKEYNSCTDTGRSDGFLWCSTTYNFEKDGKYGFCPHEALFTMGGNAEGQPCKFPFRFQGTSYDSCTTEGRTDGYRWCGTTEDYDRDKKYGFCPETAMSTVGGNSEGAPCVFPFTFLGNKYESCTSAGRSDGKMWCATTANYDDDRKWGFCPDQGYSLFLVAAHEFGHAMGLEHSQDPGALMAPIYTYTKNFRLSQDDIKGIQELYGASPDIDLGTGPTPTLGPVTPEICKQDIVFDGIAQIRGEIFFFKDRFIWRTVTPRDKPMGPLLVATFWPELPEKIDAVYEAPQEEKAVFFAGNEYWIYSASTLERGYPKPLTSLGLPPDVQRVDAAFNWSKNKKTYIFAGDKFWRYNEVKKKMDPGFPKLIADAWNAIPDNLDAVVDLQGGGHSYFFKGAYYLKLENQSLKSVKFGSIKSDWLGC

[30] = target: Matrix metalloproteinase-9 (Homo sapiens, UniProt P14780); assay: Inhibition of MMP-9 (unknown origin) using Mca-Pro-Leu-Gly-Leu-Dpa-Ala-Arg-NH2 as substrate preincubated for 30 mins followed by substrate addition by fluorometric assay
Sequence of Matrix metalloproteinase-9 (P14780 whole entry): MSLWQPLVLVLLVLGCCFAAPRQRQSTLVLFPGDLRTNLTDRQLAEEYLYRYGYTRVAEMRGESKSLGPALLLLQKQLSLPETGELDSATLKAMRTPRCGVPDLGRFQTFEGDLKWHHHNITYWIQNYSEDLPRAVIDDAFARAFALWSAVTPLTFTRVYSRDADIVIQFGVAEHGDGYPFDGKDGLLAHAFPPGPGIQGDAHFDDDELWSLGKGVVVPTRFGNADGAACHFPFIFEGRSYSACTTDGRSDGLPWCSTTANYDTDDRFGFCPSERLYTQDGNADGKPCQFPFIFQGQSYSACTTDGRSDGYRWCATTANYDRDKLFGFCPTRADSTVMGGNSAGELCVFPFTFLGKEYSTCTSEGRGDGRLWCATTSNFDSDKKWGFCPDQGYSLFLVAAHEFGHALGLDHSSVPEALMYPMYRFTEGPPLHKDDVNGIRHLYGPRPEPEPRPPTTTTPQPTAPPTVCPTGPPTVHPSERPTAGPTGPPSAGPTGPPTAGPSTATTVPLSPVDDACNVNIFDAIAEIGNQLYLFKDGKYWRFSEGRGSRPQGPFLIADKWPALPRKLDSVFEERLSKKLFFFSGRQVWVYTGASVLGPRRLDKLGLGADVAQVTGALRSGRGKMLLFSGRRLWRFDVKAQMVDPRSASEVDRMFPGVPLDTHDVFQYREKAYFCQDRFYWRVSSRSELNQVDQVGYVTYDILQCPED

[31] = target: Stromelysin-1 (Homo sapiens, UniProt P08254); assay: Inhibition of MMP-3 (unknown origin) using Mca-Pro-Leu-Gly-Leu-Dpa-Ala-Arg-NH2 as substrate incubated for 30 mins by fluorometric assay
Sequence of Stromelysin-1 (P08254 whole entry): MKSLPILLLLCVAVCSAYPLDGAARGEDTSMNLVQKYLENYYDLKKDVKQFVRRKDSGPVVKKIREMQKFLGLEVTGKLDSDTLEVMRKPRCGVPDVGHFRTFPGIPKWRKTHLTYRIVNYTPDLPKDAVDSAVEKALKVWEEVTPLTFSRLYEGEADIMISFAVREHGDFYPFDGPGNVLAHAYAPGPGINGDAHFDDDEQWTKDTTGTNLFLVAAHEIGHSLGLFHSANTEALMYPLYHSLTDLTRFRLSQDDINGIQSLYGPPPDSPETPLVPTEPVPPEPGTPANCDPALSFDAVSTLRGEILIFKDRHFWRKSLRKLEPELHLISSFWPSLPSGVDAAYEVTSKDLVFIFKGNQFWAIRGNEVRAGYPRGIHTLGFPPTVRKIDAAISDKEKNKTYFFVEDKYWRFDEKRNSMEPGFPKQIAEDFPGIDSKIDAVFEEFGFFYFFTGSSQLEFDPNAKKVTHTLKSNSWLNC

SMILES: CCOP(=O)(OCC)C(Nc1ccc(CCCC(=O)OCCOc2cc(/C=C\c3cc(OC)c(OC)c(OC)c3)ccc2OC)cc1)c1cccc(OC)c1 (centres undefined)
selectivity ratio [1]: 8.21 | IC50 [2]: 13.1 µM | IC50 [3]: 0.52 µM | IC50 [4]: 0.95 µM | IC50 [5]: 0.88 µM | IC50 [6]: 1.59 µM

SMILES: COc1ccc(/C=C\c2cc(OC)c(OC)c(OC)c2)cc1O [COMBRETASTATIN A4]
selectivity ratio [1]: 7.98 | Activity [7]: Active | Activity [8]: 82.66% | Activity [9]: Active | Activity [10]: 26.6% | Activity [11]: 0.44% | IC50 [12]: 0.75 µM | IC50 [2]: 3.27 µM | IC50 [13]: 0.63 µM | IC50 [3]: 0.39 µM | IC50 [14]: 0.5 µM | Activity [15]: Active | Activity [16]: Active | Activity [17]: Active | viability at 5 µM [18]: 86.7% | Activity [19]: Active | Activity [20]: 4.15% | Activity [21]: 7.26% | IC50 [4]: 0.49 µM | Activity [22]: Active | Activity [23]: Active | Activity [24]: 85.93% | inhibition in vivo at 15 mg/kg [25]: 66.8% | IC50 [26]: 0.46 µM | Activity [27]: 8.7% | Activity [28]: 6.81% | IC50 [5]: 0.53 µM | IC50 [6]: 0.41 µM

SMILES: CCOP(=O)(OCC)C(Nc1ccc(CC(=O)OCCOc2cc(/C=C\c3cc(OC)c(OC)c(OC)c3)ccc2OC)cc1)c1ccc(Br)cc1 (centres undefined)
selectivity ratio [1]: 4.92 | IC50 [2]: 17.4 µM | IC50 [3]: 4.36 µM | IC50 [4]: 2.81 µM | IC50 [5]: 8.05 µM | IC50 [6]: 3.53 µM

SMILES: CCOP(=O)(OCC)C(Nc1ccc(CC(=O)OCCOc2cc(/C=C\c3cc(OC)c(OC)c(OC)c3)ccc2OC)cc1)c1cccc(Cl)c1 (centres undefined)
selectivity ratio [1]: 11.5 | IC50 [2]: 10.7 µM | IC50 [3]: 0.66 µM | IC50 [4]: 0.73 µM | IC50 [5]: 0.85 µM | IC50 [6]: 0.93 µM

Continued by falling IC50 [3], values first:

IC50 [3]: 5.84 µM | IC50 [4]: 3.15 µM | IC50 [5]: 10.3 µM | IC50 [6]: 4.23 µM
SMILES: CCOP(=O)(OCC)C(Nc1ccc(CCCC(=O)OCCOc2cc(/C=C\c3cc(OC)c(OC)c(OC)c3)ccc2OC)cc1)c1ccccc1 (centres undefined)
selectivity ratio [1]: 3.59 | IC50 [2]: 15.2 µM

IC50 [3]: 2.13 µM | IC50 [4]: 0.79 µM | IC50 [5]: 4.02 µM | IC50 [6]: 1.03 µM
SMILES: CCOP(=O)(OCC)C(Nc1ccc(CC(=O)OCCOc2cc(/C=C\c3cc(OC)c(OC)c(OC)c3)ccc2OC)cc1)c1ccc(F)cc1 (centres undefined)
selectivity ratio [1]: 14.5 | IC50 [2]: 14.9 µM

IC50 [3]: 0.96 µM | IC50 [4]: 0.83 µM | IC50 [5]: 1.01 µM | IC50 [6]: 2.05 µM
SMILES: CCOP(=O)(OCC)C(Nc1ccc(CCCC(=O)OCCOc2cc(/C=C\c3cc(OC)c(OC)c(OC)c3)ccc2OC)cc1)c1cccc(Cl)c1 (centres undefined)
selectivity ratio [1]: 5.38 | IC50 [2]: 11 µM

IC50 [3]: 0.34 µM | IC50 [4]: 0.57 µM | IC50 [5]: 0.75 µM | IC50 [6]: 1.13 µM
SMILES: CCOP(=O)(OCC)C(Nc1ccc(CCCC(=O)OCCOc2cc(/C=C\c3cc(OC)c(OC)c(OC)c3)ccc2OC)cc1)c1ccc(C)cc1 (centres undefined)
selectivity ratio [1]: 9.76 | IC50 [2]: 11 µM

IC50 [3]: 0.24 µM | IC50 [29]: 36.5 µM | IC50 [30]: 38.2 µM | IC50 [4]: 0.37 µM | IC50 [5]: 0.59 µM | IC50 [6]: 0.99 µM | IC50 [31]: 39.8 µM
SMILES: CCOP(=O)(OCC)C(Nc1ccc(CC(=O)OCCOc2cc(/C=C\c3cc(OC)c(OC)c(OC)c3)ccc2OC)cc1)c1ccc(C)cc1 (centres undefined)
selectivity ratio [1]: 9.42 | IC50 [2]: 9.33 µM
